Experimental data reported in PubChem BioAssay AID1963960 (Molecular Pharmacology Branch, DTP, NCI, 2024).

Tested on: MDA-MB-468 spheroids with HUVEC/MSC, viability
Assay: Anticancer human tumor MDA-MB-468 cell line growth inhibition [PI3K];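 also: spheroids exposed to agents for seven days before readout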;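 as to viability, T/C: 100% = DMSO vehicle control viability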
Details: for viability, T/C: stronger effect = lower value
Procedure, shortened: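 Tumor cells grown as multi-cell spheroids with HUVEC endothelial cells and MSC fibroblast-like stroma were treated with targeted agents combined with inavolisib, alpelisib, duvelisib or copanlisib. Doses fell in half-log steps from near clinical Cmax, else from 10 microM. Viability was measured.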

[1] = curve of first compound, second compound 0.0316 µM
[2] = curve of first compound, second compound 0.1 µM
[3] = curve of first compound, second compound 0.316 µM
[4] = curve of first compound, second compound 1 µM
[5] = curve of first compound, second compound 3.16 µM
[6] = curve of first compound, second compound 10 µM
[7] = second compound 0.0316 µM, first compound 0.00316 µM
[8] = second compound 0.0316 µM, first compound 0.01 µM
[9] = second compound 0.0316 µM, first compound 0.0316 µM
[10] = second compound 0.0316 µM, first compound 0.1 µM
[11] = second compound 0.0316 µM, first compound 0.316 µM
[12] = second compound 0.0316 µM, first compound 1 µM
[13] = second compound 0.1 µM, first compound 0.00316 µM
[14] = second compound 0.1 µM, first compound 0.01 µM
[15] = second compound 0.1 µM, first compound 0.0316 µM
[16] = second compound 0.1 µM, first compound 0.1 µM
[17] = second compound 0.1 µM, first compound 0.316 µM
[18] = second compound 0.1 µM, first compound 1 µM
[19] = second compound 0.316 µM, first compound 0.00316 µM
[20] = second compound 0.316 µM, first compound 0.01 µM
[21] = second compound 0.316 µM, first compound 0.0316 µM
[22] = second compound 0.316 µM, first compound 0.1 µM
[23] = second compound 0.316 µM, first compound 0.316 µM
[24] = second compound 0.316 µM, first compound 1 µM
[25] = second compound 1 µM, first compound 0.00316 µM
[26] = second compound 1 µM, first compound 0.01 µM
[27] = second compound 1 µM, first compound 0.0316 µM
[28] = second compound 1 µM, first compound 0.1 µM
[29] = second compound 1 µM, first compound 0.316 µM
[30] = second compound 1 µM, first compound 1 µM
[31] = second compound 3.16 µM, first compound 0.00316 µM
[32] = second compound 3.16 µM, first compound 0.01 µM
[33] = second compound 3.16 µM, first compound 0.0316 µM
[34] = second compound 3.16 µM, first compound 0.1 µM
[35] = second compound 10 µM, first compound 0.00316 µM
[36] = second compound 10 µM, first compound 0.01 µM
[37] = second compound 10 µM, first compound 0.0316 µM
[38] = second compound 10 µM, first compound 0.1 µM

CCN1CCN(Cc2ccc(Nc3ncc(F)c(-c4cc(F)c5nc(C)n(C(C)C)c5c4)n3)nc2)CC1 + CC(Nc1ncnc2nc[nH]c12)c1cc2cccc(Cl)c2c(=O)n1-c1ccccc1
IC50 [1]: > 1000 nM
IC50 [2]: > 1000 nM
IC50 [3]: > 1000 nM
IC50 [4]: > 1000 nM
IC50 [5]: > 1000 nM
IC50 [6]: < 3.16 nM
viability, T/C [7]: 98.7%
viability, T/C [8]: 89.8%
viability, T/C [9]: 88.1%
viability, T/C [10]: 88.1%
viability, T/C [11]: 85.3%
viability, T/C [12]: 67.9%
viability, T/C [13]: 85.3%
viability, T/C [14]: 92.7%
viability, T/C [15]: 94.1%
viability, T/C [16]: 93.7%
viability, T/C [17]: 79.3%
viability, T/C [18]: 60.1%
viability, T/C [19]: 78.3%
viability, T/C [20]: 81.1%
viability, T/C [21]: 82.3%
viability, T/C [22]: 65.5%
viability, T/C [23]: 81%
viability, T/C [24]: 56.6%
viability, T/C [25]: 58.2%
viability, T/C [26]: 70%
viability, T/C [27]: 69.5%
viability, T/C [28]: 61.7%
viability, T/C [29]: 56.9%
viability, T/C [30]: 51.5%
viability, T/C [31]: 60.9%
viability, T/C [32]: 57.4%
viability, T/C [33]: 57.9%
viability, T/C [34]: 53.7%
viability, T/C (second compound 3.16 µM, first compound 0.316 µM): 55.1%
viability, T/C (second compound 3.16 µM, first compound 1 µM): 48.1%
viability, T/C [35]: 40.9%
viability, T/C [36]: 42.4%
viability, T/C [37]: 41%
viability, T/C [38]: 40%
viability, T/C (second compound 10 µM, first compound 0.316 µM): 37.8%
viability, T/C (second compound 10 µM, first compound 1 µM): 31.8%

CC1(C)CCC(Nc2ncc(C(F)(F)F)c(-c3c[nH]c4c(P(C)(C)=O)c(C#N)ccc34)n2)CN1 (stereo not drawn)
viability, T/C (compound 0.0316 µM): 12% [middle of 4 runs]
viability, T/C (compound 0.1 µM): 10.6% [middle of 4 runs]
viability, T/C (compound 0.316 µM): 9.01% [middle of 4 runs]
viability, T/C (compound 1 µM): 7.86% [middle of 4 runs]
viability, T/C (compound 3.16 µM): 8.98% [middle of 4 runs]
viability, T/C (compound 10 µM): 1.71% [middle of 4 runs]
IC50 (curve of compound): < 31.6 nM

CC(=O)c1c(C)c2cnc(Nc3ccc(N4CCNCC4)cn3)nc2n(C2CCCC2)c1=O + Cc1nc(NC(=O)N2CCCC2C(N)=O)sc1-c1ccnc(C(C)(C)C(F)(F)F)c1
IC50 [1]: > 100 nM
IC50 [2]: > 100 nM
IC50 [3]: > 100 nM
IC50 [4]: > 100 nM
IC50 [5]: > 100 nM
IC50 [6]: < 0.316 nM
viability, T/C (second compound 0.0316 µM, first compound 0.000316 µM): 91.5%
viability, T/C (second compound 0.0316 µM, first compound 0.001 µM): 92.1%
viability, T/C [7]: 74.8%
viability, T/C [8]: 93.4%
viability, T/C [9]: 70.7%
viability, T/C [10]: 70.2%
viability, T/C (second compound 0.1 µM, first compound 0.000316 µM): 88.3%
viability, T/C (second compound 0.1 µM, first compound 0.001 µM): 92.2%
viability, T/C [13]: 86.5%
viability, T/C [14]: 97%
viability, T/C [15]: 61.6%
viability, T/C [16]: 67.2%
viability, T/C (second compound 0.316 µM, first compound 0.000316 µM): 96.2%
viability, T/C (second compound 0.316 µM, first compound 0.001 µM): 95%
viability, T/C [19]: 74.8%
viability, T/C [20]: 91.9%
viability, T/C [21]: 72.5%
viability, T/C [22]: 67.6%
viability, T/C (second compound 1 µM, first compound 0.000316 µM): 90.1%
viability, T/C (second compound 1 µM, first compound 0.001 µM): 75.7%
viability, T/C [25]: 73.5%
viability, T/C [26]: 75.2%
viability, T/C [27]: 75.6%
viability, T/C [28]: 76.8%
viability, T/C (second compound 3.16 µM, first compound 0.000316 µM): 74.9%
viability, T/C (second compound 3.16 µM, first compound 0.001 µM): 60.4%
viability, T/C [31]: 57.5%
viability, T/C [32]: 68.8%
viability, T/C [33]: 55.4%
viability, T/C [34]: 55.2%
viability, T/C (second compound 10 µM, first compound 0.000316 µM): 32.1%
viability, T/C (second compound 10 µM, first compound 0.001 µM): 24.2%
viability, T/C [35]: 31.2%
viability, T/C [36]: 28.6%
viability, T/C [37]: 29.5%
viability, T/C [38]: 27.6%

Cn1nccc1Nc1nccc(-c2ccn(C(CO)c3ccc(Cl)c(F)c3)c(=O)c2)n1 (stereo not drawn) + COc1c(OCCCN2CCOCC2)ccc2c3n(c(=NC(=O)c4cnc(N)nc4)nc12)CCN3
IC50 (curve of first compound, second compound 0.00316 µM): > 10000 nM
IC50 (curve of first compound, second compound 0.01 µM): > 10000 nM
IC50 [1]: 7630 nM
IC50 [2]: 4400 nM
IC50 [3]: < 31.6 nM
IC50 [4]: < 31.6 nM
viability, T/C (second compound 0.00316 µM, first compound 0.0316 µM): 90.7%
viability, T/C (second compound 0.00316 µM, first compound 0.1 µM): 83%
viability, T/C (second compound 0.00316 µM, first compound 0.316 µM): 79.1%
viability, T/C (second compound 0.00316 µM, first compound 1 µM): 85.3%
viability, T/C (second compound 0.00316 µM, first compound 3.16 µM): 81.3%
viability, T/C (second compound 0.00316 µM, first compound 10 µM): 73.6%
viability, T/C (second compound 0.01 µM, first compound 0.0316 µM): 71.1%
viability, T/C (second compound 0.01 µM, first compound 0.1 µM): 86.5%
viability, T/C (second compound 0.01 µM, first compound 0.316 µM): 78.7%
viability, T/C (second compound 0.01 µM, first compound 1 µM): 71.8%
viability, T/C (second compound 0.01 µM, first compound 3.16 µM): 77.9%
viability, T/C (second compound 0.01 µM, first compound 10 µM): 76.9%
viability, T/C [9]: 71.3%
viability, T/C [10]: 68.7%
viability, T/C [11]: 71.7%
viability, T/C [12]: 73.9%
viability, T/C (second compound 0.0316 µM, first compound 3.16 µM): 61.9%
viability, T/C (second compound 0.0316 µM, first compound 10 µM): 46%
viability, T/C [15]: 56.3%
viability, T/C [16]: 54.9%
viability, T/C [17]: 52.5%
viability, T/C [18]: 52.4%
viability, T/C (second compound 0.1 µM, first compound 3.16 µM): 50.9%
viability, T/C (second compound 0.1 µM, first compound 10 µM): 48.6%
viability, T/C [21]: 24.6%
viability, T/C [22]: 23.3%
viability, T/C [23]: 23.3%
viability, T/C [24]: 24.9%
viability, T/C (second compound 0.316 µM, first compound 3.16 µM): 26%
viability, T/C (second compound 0.316 µM, first compound 10 µM): 19.9%
viability, T/C [27]: 3.06%
viability, T/C [28]: 2.27%
viability, T/C [29]: 2.37%
viability, T/C [30]: 2.51%
viability, T/C (second compound 1 µM, first compound 3.16 µM): 1.79%
viability, T/C (second compound 1 µM, first compound 10 µM): 0.85%
